Test results: patent US20250144067A1, “PERSONALIZED STARVATION THERAPY FOR CANCER” (Faeth Therapeutics, Inc., priority 2021, published 2025)
Counter-ions that a name gives are not always drawn. Like-named read-outs stand apart in the source and are kept apart here.

What was measured:
[1] = tested on: NCI-H292 lung cancer cells; test: FDA drug screening, complete media vs cholesterol-free media with simvastatin (TABLE 2); type: cell-based, human
[2] = tested on: NCI-H292 lung cancer cells; test: FDA drug screening, complete media vs cholesterol-free media without statin (TABLE 1); type: cell-based, human
[3] = NCI-H292 cells, drug in cholesterol-free media with simvastatin 0.04 μM
[4] = NCI-H292 cells, drug in complete media
[5] = complete media vs cholesterol-free media + simvastatin (0.04 μM), >0 enhanced anti-cancer activity, about 0 neutral, <0 antagonist
[6] = NCI-H292 cells, cholesterol-free media without statin
[7] = complete vs cholesterol-free media, greater than 0 enhanced anti-cancer activity, about 0 neutral, below 0 antagonists
[8] = NCI-H292 cells, FDA drug library screen, cholesterol-free media with simvastatin 0.04 μM
[9] = NCI-H292 cells, FDA drug library screen, complete media
[10] = complete media minus cholesterol-free media + simvastatin, >0 enhanced anti-cancer activity, about 0 neutral, <0 antagonist
[11] = Complete minus Cholesterol-free, >0 enhanced anti-cancer activity, about 0 neutral, <0 antagonist
[12] = NCI-H292 cells, cholesterol-free media without statin, FDA drug library screen
[13] = NCI-H292 cells, complete media, FDA drug library screen
[14] = NCI-H292 cells, cholesterol-free media with simvastatin 0.04 μM, FDA drug library screen (TABLE 2)
[15] = NCI-H292 cells, complete media, FDA drug library screen (TABLE 2)
[16] = complete media minus cholesterol-free media + simvastatin (0.04 μM), >0 enhanced anti-cancer activity, about 0 neutral, <0 antagonist
[17] = NCI-H292 cells, cholesterol-free media with simvastatin 0.04 μM, cell growth value in FDA drug screen
[18] = NCI-H292 cells, complete media, cell growth value in FDA drug screen
[19] = complete vs cholesterol-free media, >0 enhanced anti-cancer activity, about 0 neutral, <0 antagonist
[20] = Complete minus Cholesterol-free, greater than 0 enhanced anti-cancer activity, about 0 neutral, below 0 antagonist
[21] = NCI-H292 cells, FDA drug library screen, cholesterol-free media without statin
[22] = Complete minus Cholesterol-free, […]
[23] = Complete minus Cholesterol-free, greater than 0 enhanced anti-cancer activity, about 0 neutral, below 0 antagonists
[24] = NCI-H292 cells in cholesterol-free media without statin
[25] = NCI-H292 cells in complete media
[26] = NCI-H292 cells, cholesterol-free media with simvastatin 0.04 μM, […]
[27] = NCI-H292 cells, complete media, […]
[28] = complete media minus cholesterol-free media + simvastatin, […]

## O=C(O)c1ccc(-n2nc(-c3ccccc3O)nc2-c2ccccc2O)cc1 [Deferasirox]
[1]; [3]
  Cholesterol-free media + simvastatin (0.04 μM): 1.22
[1]; [4]
  Complete Media: 0.9596
[1]; [5]
  Difference: −0.26
[2]; [6]
  Cholesterol-free: 1.441
[2]; NCI-H292 cells, complete media
  Complete: 0.9894
[2]; [7]
  Difference: −0.45

## N=C1CCCN1Cc1nc(O)nc(O)c1Cl [Tipiracil (hydrochloride)]
[1]; [8]
  Cholesterol-free media + simvastatin (0.04 μM): 0.8843
[1]; [9]
  Complete Media: 1.03
[1]; [10]
  Difference: 0.15
[2]; [11]
  Difference: 0.03
[2]; [12]
  Cholesterol-free: 0.8754
[2]; [13]
  Complete: 0.9052

## NC[C@H](O)c1ccc(O)c(O)c1 [Norepinephrine]
[1]; [14]
  Cholesterol-free media + simvastatin (0.04 μM): 0.9481
[1]; [15]
  Complete Media: 0.884
[1]; [16]
  Difference: −0.06
[2]; [11]
  Difference: −0.02
[2]; [12]
  Cholesterol-free: 0.981
[2]; [13]
  Complete: 0.9634

## CC(C)C[C@H](NC(=O)[C@H](Cc1ccccc1)NC(=O)c1cnccn1)B(O)O [Bortezomib]
[1]; [14]
  Cholesterol-free media + simvastatin (0.04 μM): 0.003233
[1]; [15]
  Complete Media: −0.017
[1]; [16]
  Difference: −0.02
[2]; [11]
  Difference: 0.00
[2]; [12]
  Cholesterol-free: 0.006863
[2]; [13]
  Complete: 0.00697

## CN1CCN(c2ccc(C(=O)Nc3n[nH]c4ccc(Cc5cc(F)cc(F)c5)cc34)c(NC3CCOCC3)c2)CC1 [Entrectinib]
[1]; [17]
  Cholesterol-free media + simvastatin (0.04 μM): 0.2455
[1]; [18]
  Complete Media: 0.2696
[1]; [10]
  Difference: 0.02
[2]; [11]
  Difference: −0.05
[2]; [12]
  Cholesterol-free: 0.4371
[2]; [13]
  Complete: 0.3827

## CC(=O)OCC(=O)NCCCOc1cccc(CN2CCCCC2)c1.Cl [Roxatidine (Acetate Hydrochloride)]
[1]; [8]
  Cholesterol-free media + simvastatin (0.04 μM): 1.117
[1]; [9]
  Complete Media: 1.004
[1]; [5]
  Difference: −0.11
[2]; [6]
  Cholesterol-free: 1.511
[2]; NCI-H292 cells, complete media
  Complete: 1.141
[2]; [7]
  Difference: −0.37

## Cc1c(Cl)cccc1Nc1ccccc1C(=O)O [Tolfenamic Acid]
[1]; [17]
  Cholesterol-free media + simvastatin (0.04 μM): 0.9725
[1]; [18]
  Complete Media: 0.9986
[1]; [10]
  Difference: 0.03
[2]; [6]
  Cholesterol-free: 1.332
[2]; NCI-H292 cells, complete media
  Complete: 0.9309
[2]; [7]
  Difference: −0.40

## Fenticonazole (Nitrate)
[1]; [8]
  Cholesterol-free media + simvastatin (0.04 μM): 0.6564
[1]; [9]
  Complete Media: 1.167
[1]; [10]
  Difference: 0.51
[2]; [12]
  Cholesterol-free: 0.9899
[2]; [19]
  Difference: 0.08

## Lenvatinib (mesylate)
[1]; [14]
  Cholesterol-free media + simvastatin (0.04 μM): 1.17
[1]; [15]
  Complete Media: 1.154
[1]; [16]
  Difference: −0.02
[2]; [20]
  Difference: −0.10
[2]; [21]
  Cholesterol-free: 0.845
[2]; [9]
  Complete: 0.7401

## OC(c1ccccc1)(c1ccccc1)C12CC[N+](CCOCc3ccccc3)(CC1)CC2.[Br-] [Umeclidinium (bromide)]
[1]
  Cholesterol-free media + simvastatin (0.04 μM): 1.336
  Complete Media: 0.9344
  Difference: −0.40
[2]
  Cholesterol-free: 0.5848
  Complete: 0.7554
  Difference: 0.17

## COc1cc(OC)cc(N(CCNC(C)C)c2ccc3ncc(-c4cnn(C)c4)nc3c2)c1 [Erdafitinib]
[1]; [17]
  Cholesterol-free media + simvastatin (0.04 μM): 0.8898
[1]; [18]
  Complete Media: 0.9602
[1]; [10]
  Difference: 0.07
[2]; [12]
  Cholesterol-free: 0.8277
[2]; [13]
  Complete: 1.177
[2]; [19]
  Difference: 0.35

## C#Cc1cccc(Nc2ncnc3cc4c(cc23)OCCOCCOCCO4)c1 [Icotinib]
[1]; [17]
  Cholesterol-free media + simvastatin (0.04 μM): 0.6476
[1]; [18]
  Complete Media: 0.6925
[1]; [10]
  Difference: 0.04
[2]; [11]
  Difference: −0.05
[2]; [12]
  Cholesterol-free: 0.4295
[2]; [13]
  Complete: 0.3774

## Cc1nc(Nc2ncc(C(=O)Nc3c(C)cccc3Cl)s2)cc(N2CCN(CCO)CC2)n1 [Dasatinib]
[1]; [8]
  Cholesterol-free media + simvastatin (0.04 μM): 0.3286
[1]; [9]
  Complete Media: 0.514
[1]; [10]
  Difference: 0.19
[2]; [20]
  Difference: −0.15
[2]; [21]
  Cholesterol-free: 0.4806
[2]; [9]
  Complete: 0.3333

## CCCCCCCCCCCC(=O)OCN1C(=O)CCc2ccc(OCCCCN3CCN(c4cccc(Cl)c4Cl)CC3)cc21 [Aripiprazole Lauroxil]
[1]; [14]
  Cholesterol-free media + simvastatin (0.04 μM): 0.9724
[1]; [15]
  Complete Media: 0.9697
[1]; complete media minus cholesterol-free media + simvastatin (0.04 μM), […]
  Difference: 0.00
[2]; [22]
  Difference: −0.06
[2]; [12]
  Cholesterol-free: 0.9297
[2]; [13]
  Complete: 0.8705

## CCN(c1cc(-c2ccc(CN3CCOCC3)cc2)cc(C(=O)NCc2c(C)cc(C)[nH]c2=O)c1C)C1CCOCC1 [Tazemetostat (hydrobromide)]
[1]; [8]
  Cholesterol-free media + simvastatin (0.04 μM): 0.8785
[1]; [9]
  Complete Media: 1.469
[1]; [10]
  Difference: 0.59
[2]; [23]
  Difference: −0.47
[2]; [24]
  Cholesterol-free: 1.683
[2]; [25]
  Complete: 1.209

## Alverine (citrate)
[1]; [8]
  Cholesterol-free media + simvastatin (0.04 μM): 0.4761
[1]; [9]
  Complete Media: 1.128
[1]; [10]
  Difference: 0.65
[2]; [23]
  Difference: −0.59
[2]; [24]
  Cholesterol-free: 1.703

## CCCOc1ccc2c(c1)CC[C@@H]1[C@@H]2CC[C@]2(C)[C@@H](OC)CC[C@@H]12 [Promestriene]
[1]; [26]
  Cholesterol-free media + simvastatin (0.04 μM): 0.8092
[1]; [27]
  Complete Media: 0.9277
[1]; [28]
  Difference: 0.12
[2]; [22]
  Difference: −0.77
[2]; [24]
  Cholesterol-free: 1.741
[2]; [25]
  Complete: 0.9695

## CCCNS(=O)(=O)Nc1ncnc(OCCOc2ncc(Br)cn2)c1-c1ccc(Br)cc1 [Macitentan]
[1]; [8]
  Cholesterol-free media + simvastatin (0.04 μM): 1.697
[1]; [9]
  Complete Media: 1.56
[1]; [5]
  Difference: −0.14
[2]; [23]
  Difference: −0.48
[2]; [24]
  Cholesterol-free: 1.592
[2]; [25]
  Complete: 1.113

## C[N+](C)(CC(=O)Nc1ccccc1)CC(=O)Nc1ccccc1.[Cl-] [Carcainium (chloride)]
[1]; [26]
  Cholesterol-free media + simvastatin (0.04 μM): 1.019
[1]; [27]
  Complete Media: 1.155
[1]; [28]
  Difference: 0.14
[2]; [22]
  Difference: 0.01
[2]; [12]
  Cholesterol-free: 0.9985
[2]; [13]
  Complete: 1.004

## COc1cc(C)c(/C=C/C(C)=C/C=C/C(C)=C/C(=O)O)c(C)c1C [Acitretin]
[1]; [26]
  Cholesterol-free media + simvastatin (0.04 μM): 0.7241
[1]; [27]
  Complete Media: 0.76
[1]; [28]
  Difference: 0.04
[2]; [22]
  Difference: −0.08
[2]; [21]
  Cholesterol-free: 0.8064
[2]; [9]
  Complete: 0.7285

## OC[C@H]1O[C@@H](O[C@H]2[C@H](O)[C@@H](O)[C@@H](O)O[C@@H]2CO)[C@H](O)[C@@H](O)[C@H]1O [Lactose]
[1]; NCI-H292 cells, FDA library drug in complete media
  Complete Media: 0.9497
[1]; [5]
  Difference: −0.28
[2]; [23]
  Difference: −0.48
[2]; [25]
  Complete: 0.6552

## CC1(C)S[C@@H]2[C@H](NC(=O)Cc3ccccc3)C(=O)N2[C@H]1C(=O)O.CC1(C)S[C@@H]2[C@H](NC(=O)Cc3ccccc3)C(=O)N2[C@H]1C(=O)O.O.O.O.O.c1ccc(CNCCNCc2ccccc2)cc1 [Penicillin G benzathine (tetrahydrate)]
[1]; [3]
  Cholesterol-free media + simvastatin (0.04 μM): 1.321
[1]; [4]
  Complete Media: 1.126
[1]; [5]
  Difference: −0.20
[2]; [23]
  Difference: −0.54
[2]; [24]
  Cholesterol-free: 1.6
[2]; [25]
  Complete: 1.064

## CCCCC1=NC2(CCCC2)C(=O)N1Cc1ccc(-c2ccccc2-c2nnn[nH]2)cc1 [Irbesartan]
[1]; [17]
  Cholesterol-free media + simvastatin (0.04 μM): 0.9096
[1]; [18]
  Complete Media: 0.9697
[1]; [10]
  Difference: 0.06
[2]; [20]
  Difference: −0.08
[2]; [21]
  Cholesterol-free: 0.8711
[2]; [9]
  Complete: 0.7887
